Test results reported in PMC10326263 (Acta Pharmaceutica Sinica. B, 2023).

Experiments:
[1] = system: HIV-1 mutant strain L100I; assay: microbe, parasite or virus in culture; type: cell-based; settings: Human immunodeficiency virus 1, MT4, read-out: EC50 L100I
[2] = system: HIV-1 WT strain (IIIB); assay: Anti-HIV activity against WT HIV-1; settings: WT HIV-1 IIIB
[3] = system: HIV-1 mutant strain E138K; assay: microbe, parasite or virus in culture; type: cell-based; settings: Human immunodeficiency virus 1, MT4, read-out: EC50 E138K
[4] = system: HIV-1 mutant strain Y188L; assay: microbe, parasite or virus in culture; type: cell-based; settings: Human immunodeficiency virus 1, MT4, read-out: EC50 Y188L
[5] = system: HIV-1 mutant strain RES056 (K103N + Y181C); assay: microbe, parasite or virus in culture; type: cell-based; settings: Human immunodeficiency virus 1, MT4, read-out: EC50 RES056
[6] = system: HIV-1 mutant strain Y181C; assay: microbe, parasite or virus in culture; type: cell-based; settings: Human immunodeficiency virus 1, MT4, read-out: EC50 Y181C
[7] = Cytotoxicity in mock-infected MT-4 cells, MTT method; type: cell-based; settings: human, mock-infected MT-4 cells, CC50, mock-infected MT-4 cells
[8] = system: HIV-1 mutant strain F227L + V106A; assay: microbe, parasite or virus in culture; type: cell-based; settings: Human immunodeficiency virus 1, MT4, read-out: EC50 F227L + V106A
[9] = system: HIV-1 mutant strain K103N; assay: microbe, parasite or virus in culture; type: cell-based; settings: Human immunodeficiency virus 1, MT4, read-out: EC50 K103N

Cc1cc(C)cc(S(=O)(=O)c2c(C(=O)NCCNS(=O)(=O)c3cccnc3)[nH]c3ccc(Cl)cc23)c1 [R10L2, 5-Chloro-3-((3,5-dimethylphenyl)sulfonyl)-N-(2-(pyridine-3-sulfonamido)ethyl)-1H-indole-2-carboxamide]
EC50 [1]: 140 ± 46 nM
SI IIIB (CC50/EC50 ratio) [2]: 3205
EC50 [3]: 120 ± 33 nM
EC50 [4]: 2200 ± 400 nM
EC50 [5]: 4600 ± 310 nM
EC50 [6]: 290 ± 18 nM
CC50 at 5 days [7]: 23400 ± 750 nM
EC50 [8]: 1480 ± 270 nM
EC50 [9]: 290 ± 55 nM

Cc1cc(C)cc(S(=O)(=O)c2c(C(=O)NCCNS(=O)(=O)c3ccc(-c4ccccc4)cc3)[nH]c3ccc(Cl)cc23)c1 [R14L2, N-(2-([1,1′-Biphenyl]-4-sulfonamido)ethyl)-5-chloro-3-((3,5-dimethylphenyl)sulfonyl)-1H-indole-2-carboxamide]
EC50 [1]: 950 ± 97 nM
SI IIIB (CC50/EC50 ratio) [2]: 317
EC50 [3]: 740 ± 97 nM
EC50 [4]: > 31200 nM
EC50 [5]: > 82400 nM
EC50 [6]: 1420 ± 370 nM
CC50 at 5 days [7]: 64300 ± 11200 nM
EC50 [8]: 2990 ± 680 nM
EC50 [9]: 1190 ± 260 nM

Cc1cc(C)cc(S(=O)(=O)c2c(C(=O)NCCNS(=O)(=O)c3cccc(F)c3)[nH]c3ccc(Cl)cc23)c1 [R12L2, 5-Chloro-3-((3,5-dimethylphenyl)sulfonyl)-N-(2-((3-fluorophenyl)sulfonamido)ethyl)-1H-indole-2-carboxamide]
EC50 [1]: 460 ± 180 nM
SI IIIB (CC50/EC50 ratio) [2]: 5151
EC50 [3]: 440 ± 110 nM
EC50 [4]: 3300 ± 300 nM
EC50 [5]: 4940 ± 1240 nM
EC50 [6]: 550 ± 89 nM
CC50 at 5 days [7]: 187000 ± 4810 nM
EC50 [8]: 2260 ± 550 nM
EC50 [9]: 500 ± 89 nM

Cc1cc(C)cc(S(=O)(=O)c2c(C(=O)NCCNS(=O)(=O)c3ccc(F)cc3)[nH]c3ccc(Cl)cc23)c1 [R4L2, 5-Chloro-3-((3,5-dimethylphenyl)sulfonyl)-N-(2-((4-fluorophenyl)sulfonamido)ethyl)-1H-indole-2-carboxamide]
EC50 [1]: 210 ± 36 nM
SI IIIB (CC50/EC50 ratio) [2]: >7921
EC50 [3]: 370 ± 110 nM
EC50 [4]: 3000 ± 53 nM
EC50 [5]: 3230 ± 18 nM
EC50 [6]: 370 ± 140 nM
CC50 at 5 days [7]: > 222000 nM
EC50 [8]: 830 ± 120 nM
EC50 [9]: 360 ± 160 nM

Cc1cc(C)cc(S(=O)(=O)c2c(C(=O)NCCCNS(=O)(=O)c3ccccc3)[nH]c3ccc(Cl)cc23)c1 [R9L3, 5-Chloro-3-((3,5-dimethylphenyl)sulfonyl)-N-(3-(phenylsulfonamido)propyl)-1H-indole-2-carboxamide]
EC50 [1]: 180 ± 54 nM
SI IIIB (CC50/EC50 ratio) [2]: >8047
EC50 [3]: 55 ± 18 nM
EC50 [4]: 3080 ± 250 nM
EC50 [5]: 4760 ± 800 nM
EC50 [6]: 700 ± 270 nM
CC50 at 5 days [7]: > 224000 nM
EC50 [8]: 800 ± 250 nM
EC50 [9]: 320 ± 72 nM

Cc1cc(C)cc(S(=O)(=O)c2c(C(=O)NCCCCCNS(=O)(=O)c3ccc(C#N)cc3)[nH]c3ccc(Cl)cc23)c1 [R5L5, 5-Chloro-3-((3,5-dimethylphenyl)sulfonyl)-N-(5-((4-cyanophenyl)sulfonamido)pentyl)-1H-indole-2-carboxamide]
EC50 [1]: 77 ± 23 nM
SI IIIB (CC50/EC50 ratio) [2]: >6158
EC50 [3]: 160 ± 16 nM
EC50 [4]: 1700 ± 520 nM
EC50 [5]: 11900 ± 4900 nM
EC50 [6]: 210 nM
CC50 at 5 days [7]: > 204000 nM
EC50 [8]: 340 ± 82 nM
EC50 [9]: 560 ± 130 nM

Cc1cc(C)cc(S(=O)(=O)c2c(C(=O)NCCNS(=O)(=O)c3ccc([N+](=O)[O-])cc3)[nH]c3ccc(Cl)cc23)c1 [R3L2, 5-Chloro-3-((3,5-dimethylphenyl)sulfonyl)-N-(2-((4-nitrophenyl)sulfonamido)ethyl)-1H-indole-2-carboxamide]
EC50 [1]: 950 ± 85 nM
SI IIIB (CC50/EC50 ratio) [2]: >1764
EC50 [3]: 1150 nM
EC50 [4]: > 212000 nM
EC50 [5]: > 212000 nM
EC50 [6]: 1000 ± 170 nM
CC50 at 5 days [7]: > 212000 nM
EC50 [8]: 6170 ± 1140 nM
EC50 [9]: 590 ± 100 nM

Cc1cc(C)cc(S(=O)(=O)c2c(C(=O)NCCCNS(=O)(=O)c3ccccc3F)[nH]c3ccc(Cl)cc23)c1 [R11L3, 5-Chloro-3-((3,5-dimethylphenyl)sulfonyl)-N-(3-((2-fluorophenyl)sulfonamido)propyl)-1H-indole-2-carboxamide]
EC50 [1]: 160 ± 78 nM
SI IIIB (CC50/EC50 ratio) [2]: 12,570
EC50 [3]: 68 ± 2 nM
EC50 [4]: 7120 ± 760 nM
EC50 [5]: 12800 ± 10100 nM
EC50 [6]: 610 ± 140 nM
CC50 at 5 days [7]: 192000 ± 4990 nM
EC50 [8]: 880 ± 520 nM
EC50 [9]: 280 ± 35 nM

Cc1cc(C)cc(S(=O)(=O)c2c(C(=O)NCCCCCNS(=O)(=O)c3cccnc3)[nH]c3ccc(Cl)cc23)c1 [R10L5, 5-Chloro-3-((3,5-dimethylphenyl)sulfonyl)-N-(5-(pyridine-3-sulfonamido)pentyl)-1H-indole-2-carboxamide]
EC50 [1]: 46 ± 14 nM
SI IIIB (CC50/EC50 ratio) [2]: 5513
EC50 [3]: 29 ± 12 nM
EC50 [4]: 730 ± 34 nM
EC50 [5]: 10600 ± 6700 nM
EC50 [6]: 110 ± 22 nM
CC50 at 5 days [7]: 41900 ± 2180 nM
EC50 [8]: 140 ± 75 nM
EC50 [9]: 190 ± 34 nM

Cc1ccc(S(=O)(=O)NCCCNC(=O)c2[nH]c3ccc(Cl)cc3c2S(=O)(=O)c2cc(C)cc(C)c2)cc1 [R1L3, 5-Chloro-3-((3,5-dimethylphenyl)sulfonyl)-N-(3-((4-methylphenyl)sulfonamido)propyl)-1H-indole-2-carboxamide]
EC50 [1]: 540 ± 420 nM
SI IIIB (CC50/EC50 ratio) [2]: 4586
EC50 [3]: 210 ± 140 nM
EC50 [4]: 7140 ± 1400 nM
EC50 [5]: 5970 ± 650 nM
EC50 [6]: 1190 ± 300 nM
CC50 at 5 days [7]: 168000 ± 23500 nM
EC50 [8]: 1260 ± 380 nM
EC50 [9]: 730 ± 140 nM

Cc1cc(C)cc(S(=O)(=O)c2c(C(=O)NCCNS(=O)(=O)c3ccc(C#N)cc3)[nH]c3ccc(Cl)cc23)c1 [R5L2, 5-Chloro-3-((3,5-dimethylphenyl)sulfonyl)-N-(2-((4-cyanophenyl)sulfonamido)ethyl)-1H-indole-2-carboxamide]
EC50 [1]: 770 ± 35 nM
SI IIIB (CC50/EC50 ratio) [2]: 362
EC50 [3]: 1260 nM
EC50 [4]: 3070 ± 120 nM
EC50 [5]: 3370 ± 210 nM
EC50 [6]: 890 ± 18 nM
CC50 at 5 days [7]: 23600 ± 580 nM
EC50 [8]: 1750 ± 53 nM
EC50 [9]: 840 ± 35 nM

Cc1cc(C)cc(S(=O)(=O)c2c(C(=O)NCCCNS(=O)(=O)c3cccnc3)[nH]c3ccc(Cl)cc23)c1 [R10L3, 5-Chloro-3-((3,5-dimethylphenyl)sulfonyl)-N-(3-(pyridine-3-sulfonamido)propyl)-1H-indole-2-carboxamide]
EC50 [1]: 100 ± 32 nM
SI IIIB (CC50/EC50 ratio) [2]: 6950
EC50 [3]: 43 ± 5 nM
EC50 [4]: 2320 ± 110 nM
EC50 [5]: 7770 ± 2320 nM
EC50 [6]: 200 ± 18 nM
CC50 at 5 days [7]: 55100 ± 8070 nM
EC50 [8]: 540 ± 270 nM
EC50 [9]: 200 ± 36 nM

Cc1cc(C)cc(S(=O)(=O)c2c(C(=O)NCCCCNS(=O)(=O)c3ccccc3)[nH]c3ccc(Cl)cc23)c1 [R9L4, 5-Chloro-3-((3,5-dimethylphenyl)sulfonyl)-N-(4-(phenylsulfonamido)butyl)-1H-indole-2-carboxamide]
EC50 [1]: 28 ± 8.7 nM
SI IIIB (CC50/EC50 ratio) [2]: 15,106
EC50 [3]: 31 ± 7 nM
EC50 [4]: 870 ± 170 nM
EC50 [5]: > 115000 nM
EC50 [6]: 150 ± 33 nM
CC50 at 5 days [7]: 113000 ± 26800 nM
EC50 [8]: 280 ± 52 nM
EC50 [9]: 150 ± 45 nM

Cc1cc(C#N)cc(C)c1Oc1nc(Nc2ccc(C#N)cc2)nc(N)c1Br [ETR, Etravirine, reference compound]
EC50 [1]: 32 ± 28 nM
SI IIIB (CC50/EC50 ratio) [2]: >900
EC50 [3]: 37 ± 30 nM
EC50 [4]: 83 ± 53 nM
EC50 [5]: 150 ± 120 nM
EC50 [6]: 58 ± 41 nM
CC50 at 5 days [7]: > 4590 nM
EC50 [8]: 88 ± 76 nM
EC50 [9]: 15 ± 12 nM

Cc1cc(C)cc(S(=O)(=O)c2c(C(=O)NCCCCCNS(=O)(=O)c3ccc(F)cc3)[nH]c3ccc(Cl)cc23)c1 [R4L5, 5-Chloro-3-((3,5-dimethylphenyl)sulfonyl)-N-(5-((4-fluorophenyl)sulfonamido)pentyl)-1H-indole-2-carboxamide]
EC50 [1]: 74 ± 10 nM
SI IIIB (CC50/EC50 ratio) [2]: 7527
EC50 [3]: 73 ± 20 nM
EC50 [4]: 1670 ± 350 nM
EC50 [5]: > 31200 nM
EC50 [6]: 180 ± 17 nM
CC50 at 5 days [7]: 144000 ± 13200 nM
EC50 [8]: 380 ± 17 nM
EC50 [9]: 510 ± 210 nM
